Reference: patent US20250268876A1, “TREATMENT OF HIDRADENITIS SUPPURATIVA WITH ORISMILAST” (UNION THERAPEUTICS A/S, priority 2021, published 2025)
Where “and” joins values, the source holds several entries; their conditions need not be identical. Equal values may be shown once. Read-outs that look alike come from different tables or passages of the source.

Columns and labels:
[1] = tested on: TNF-α secretion from human whole blood; test: Whole blood TNF-α secretion assay (LPS or SEB); assay type: cell-based; settings: for times more potent than Roflumilast / times more potent than apremilast: mean EC50 values; for Emax / EC50: Homo sapiens; for Emax: read-out: Emax
PDE4B2 = PDE4B2 (Homo sapiens, UniProt Q07343); test: IMAP fluorescence polarisation PDE4 subtype assay; assay type: biochemical
Sequence of PDE4B2 (Q07343 1-564 isoform Q07343-2): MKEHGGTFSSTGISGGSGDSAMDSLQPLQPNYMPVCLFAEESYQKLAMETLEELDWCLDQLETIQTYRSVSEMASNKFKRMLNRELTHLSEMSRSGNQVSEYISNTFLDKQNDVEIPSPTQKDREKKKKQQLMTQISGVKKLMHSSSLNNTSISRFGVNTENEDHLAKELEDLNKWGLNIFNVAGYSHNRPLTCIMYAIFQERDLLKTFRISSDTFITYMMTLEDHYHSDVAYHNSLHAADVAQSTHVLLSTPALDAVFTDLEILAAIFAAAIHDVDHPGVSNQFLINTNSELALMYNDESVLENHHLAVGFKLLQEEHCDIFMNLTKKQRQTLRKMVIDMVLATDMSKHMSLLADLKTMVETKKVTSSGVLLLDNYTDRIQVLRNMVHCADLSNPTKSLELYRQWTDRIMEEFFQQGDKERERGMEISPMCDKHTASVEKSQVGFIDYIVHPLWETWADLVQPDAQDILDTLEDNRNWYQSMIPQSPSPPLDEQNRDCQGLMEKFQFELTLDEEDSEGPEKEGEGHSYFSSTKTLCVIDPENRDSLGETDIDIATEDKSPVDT
Experimental: Inhibition of PDE4 subtypes by the compound of formula (I) was tested using IMAP technology, which is based on the high affinity binding of phosphate by immobilized metal coordination complexes on nanoparticles. The binding reagent complexes with phosphate groups on nucleotide monophosphate generated from cyclic nucleotides (cAMP/cGMP) through phosphodiesterases. With fluorescence polarisation detection, binding causes a change in the rate of the molecular motion of the phosphate bearing molecule, and results in an increase in the fluorescence polarization value observed for the fluorescent label attached to the substrate.
Stocks of the compound of formula (I) were prepared in 100% DMSO. All assays were performed in 3% (final) DMSO for the IMAP assay. The compound was tested in duplicate against the PDE isoform panel at a range of concentrations (10^−10, 10^−9, 10^−8, 10^−7 M).

PDE4D3 = PDE4D3 (Homo sapiens, UniProt Q08499); test: IMAP fluorescence polarisation PDE4 subtype assay; assay type: biochemical; settings: compound 10^−7 M
Sequence of PDE4D3 (Q08499 1-673 isoform Q08499-2): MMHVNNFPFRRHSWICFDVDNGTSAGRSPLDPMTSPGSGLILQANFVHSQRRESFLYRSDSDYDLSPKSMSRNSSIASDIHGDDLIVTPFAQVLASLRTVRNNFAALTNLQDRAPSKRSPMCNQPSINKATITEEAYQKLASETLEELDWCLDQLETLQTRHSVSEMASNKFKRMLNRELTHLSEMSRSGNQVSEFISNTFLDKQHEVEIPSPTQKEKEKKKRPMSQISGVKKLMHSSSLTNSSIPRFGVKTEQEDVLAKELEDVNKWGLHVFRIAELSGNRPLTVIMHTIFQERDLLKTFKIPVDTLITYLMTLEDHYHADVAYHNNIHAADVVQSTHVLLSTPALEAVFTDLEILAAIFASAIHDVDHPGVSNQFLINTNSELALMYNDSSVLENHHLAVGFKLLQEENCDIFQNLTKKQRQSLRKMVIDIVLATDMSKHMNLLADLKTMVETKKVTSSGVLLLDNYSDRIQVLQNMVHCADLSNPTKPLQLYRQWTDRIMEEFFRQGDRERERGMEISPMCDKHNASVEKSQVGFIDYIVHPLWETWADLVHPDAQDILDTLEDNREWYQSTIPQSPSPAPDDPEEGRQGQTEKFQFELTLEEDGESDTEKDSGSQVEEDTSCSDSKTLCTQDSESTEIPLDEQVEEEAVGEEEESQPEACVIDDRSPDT

[2] = tested on: Hidradenitis suppurativa (HS); test: Phase 2a open-label trial of orismilast in HS patients; assay type: in vivo, human; settings: for IHS4: Baseline 65; for VAS pain: Baseline 9; for DLQI: Baseline 25; for HiSQOL: Baseline 54
From the text: The following clinical trial may be performed using the compound of formula (I). Suitably the compound of formula (I) is orally administered to a subject in the form of a modified release composition, for example a modified release formulation described in WO 2020/148271, or as a composition described in Example 1 above. […] This is a phase 2, single-centre, prospective, open-label, single-arm, exploratory clinical trial assessing the efficacy and safety of orismilast in patients with mild, moderate, or severe HS as defined by the IHS4 scores: […] Eligible patients will receive treatment with orismilast tablets twice daily for 16 weeks. The treatment dose will be according to a predefined titration scheme and adapted to the observed tolerance of each patient. Treatment phase: […] Telephone consultation], and Week 2 [Visit 4]) (“BID” means bis in die, i.e. twice per day). Assessment of treatment efficacy will be undertaken using: • 1. Investigator assessments: • a. Counts of abscess, inflammatory nodule, and draining fistula at each on site visit day. • b. International Hidradenitis Suppurativa Severity Score System (IHS4) at each on site visit day. • c. Physician's Global Assessment of disease severity (HS-PGA) at each on site visit day. • 2. Patient assessments • a. Patients' Global Assessment of disease severity at Screening, Baseline, Week 2 (Visit 4), Week 8 (Visit 6), Week 12 (Visit 7), Week 16 (EoT, Visit 8), FU (Visit 9), and EoS (Visit 10). • b. Completion of questionnaires covering skin related quality of life DLQI at Screening, Baseline, Week 2 (Visit 4), Week 8 (Visit 6), Week 12 (Visit 7), Week 16 (EoT), FU, and EoS. • c. Completion of questionnaires covering HS specific quality of life (HiSQOL) at Screening, Baseline, Week 2 (Visit 4), Week 8 (Visit 6), Week 12 (Visit 7), Week 16 (EoT), FU, and EoS. • d. Completion of questionnaire covering skin pain (Patient's Global Assessment of Skin Pain) at each visit day. • e. Completion of questionnaire covering impact on work productivity (WPAI), anxiety and depression (HADS), fatigue (MFI-20), quality of life (EQ-5D), and McGill Pain questionnaire at Baseline, Week 16 (EoT), and EoS. • Counts of abscess, inflammatory nodule, and draining fistula. The lesions are defined in a Pan-European consensus paper ([…] et al., Dermatology. 2020; 236(5):431-438). […] An abscess is defined as a palpable lesion, with liquid content (pus), fluctuant, soft on palpation, diameter >10 mm, usually deep seated; acute, very painful phenomenon. […] A treatment target based on correlation between the changes in lesion counts and PROM (pain and HRQoL). Hidradenitis Suppurativa Clinical Response (HiSCR; a […] reduction from baseline in abscess and inflammatory nodule count and no increase in abscess or draining fistula counts) (Kimball et al., Ann Intern Med. 2012 Dec. 18; 157(12):846-55; Kimball et al., J Eur Acad Dermatol Venereol. 2016 June; 30(6):989-94). Subsequently modified for further differentiation: HiSCR75; a ≥75% reduction from baseline in abscess and inflammatory nodule count and no increase in abscess or draining fistula counts) and HiSCR-90; a ≥90% reduction from baseline in abscess and inflammatory nodule count and no increase in abscess or draining fistula counts) • International Hidradenitis Suppurativa Severity Score System (IHS4): […] The score is based on a count of inflamed lesions. The resulting IHS4 score is arrived at by the number of nodules (multiplied by 1) plus the number of abscesses (multiplied by 2) plus the number of draining tunnels (multiplied by 4). […] The six-point hidradenitis suppurativa Physician Global Assessment (PGA) ranges from clear to very severe (Kimball et al., Ann Intern Med. 2012 Dec. 18; 157(12):846-55). It is used in clinical trials to measure clinical improvement in inflammatory nodules, abscesses, and draining fistulae. The six stages are; • Clear: No inflammatory or non-inflammatory nodules. • Minimal: Only the presence of non-inflammatory nodules. • Mild: […]

`O=C(Cc1c(Cl)c[n+]([O-])cc1Cl)c1ccc(OC(F)F)c2c1OC1(CCS(=O)(=O)CC1)O2` [Compound (I), 2-(3,5-Dichloro-1-oxido-pyridine-4-yl)-1-(7-difluoro-methoxy-2′,3′,5′,6′-tetrahydro-spiro[1,3-benzodioxole-2,4′-(4H)-thiopyran-1′,1′-dioxide]-4-yl)ethanone] was tested, and the “times more potent than Roflumilast” value ([1]; (M)) was 1.7 times, the “times more potent than Roflumilast” value ([1]; (ng/mL)) was 1.4 times and the Emax ([1]; 24 h, LPS 1 μg/mL, 24 hours, donor 1, Emax defined as TNF-α level in un-stimulated wells) was 76%. It also gave an EC50 ([1]; 24 h, LPS 1 μg/mL, 24 hours, donor 1, read-out: EC50) of 5.34 nM, an EC50 ([1]; 24 h, LPS 1 μg/mL, 24 hours, donor 2, read-out: EC50) of 18.4 nM and an Emax ([1]; 24 h, LPS 1 μg/mL, 24 hours, donor 2) of 79%. It also gave an EC50 ([1]; 24 h, SEB 1 μg/mL, 24 hours, donor 1, read-out: EC50) of 4.93 nM, an Emax ([1]; 24 h, SEB 1 μg/mL, 24 hours, donor 1) of 97% and an EC50 ([1]; 24 h, SEB 1 μg/mL, 24 hours, donor 2, read-out: EC50) of 24.9 nM. For the same compound, the Emax ([1]; 24 h, SEB 1 μg/mL, 24 hours, donor 2) was 66%, the EC50 ([1]; 48 h, LPS 1 μg/mL, 48 hours, donor 1, read-out: EC50) was 12.1 nM and the Emax ([1]; 48 h, LPS 1 μg/mL, 48 hours, donor 1) was 71%. For the same compound, the EC50 ([1]; 48 h, LPS 1 μg/mL, 48 hours, donor 2, read-out: EC50) was 19.8 nM, the Emax ([1]; 48 h, LPS 1 μg/mL, 48 hours, donor 2) was 80% and the EC50 ([1]; 48 h, SEB 1 μg/mL, 48 hours, donor 1, read-out: EC50) was 4.66 nM. The Emax ([1]; 48 h, SEB 1 μg/mL, 48 hours, donor 1) was 98%, the EC50 ([1]; 48 h, SEB 1 μg/mL, 48 hours, donor 2, read-out: EC50) was 47.8 nM and the Emax ([1]; 48 h, SEB 1 μg/mL, 48 hours, donor 2) was 83%. For the same compound, the EC50 ([1]; mean of 8 determinations (LPS and SEB, 24 and 48 hours, 2 donors), read-out: Geometric mean of EC50 values across different assay parameters) was 12.6 nM and 0.00643 µg/mL, the “Potency compared with roflumilast-N-oxide (in words)” value ([1]; LPS and SEB-induced TNF-α secretion) was “equipotent to—or slightly more potent than” and the “times more potent than apremilast” value ([1]; based on molar concentrations) was 23 times. For the same compound, the “times more potent than apremilast” value ([1]; based on ng/mL concentrations) was 21 times, the inhibition at 0.1 µM (PDE4B2; compound 10^−7 M) was 61% and the inhibition at 0.01 µM (PDE4B2; compound 10^−8 M) was 41%. For the same compound, the inhibition at 0.001 µM (PDE4B2; compound 10^−9 M) was 18%, the inhibition at 0.0001 µM (PDE4B2; compound 10^−10 M) was 12% and the inhibition at 0.1 µM (PDE4D3) was 74%. The “clinical response (in words)” value ([2]; first four HS patients enrolled, trial ongoing) was “initial signs of improvement in HS”, the “clinical response (in words)” value ([2]; one patient refractory to conventional HS therapies) was “immediate clinical improvement with reduction of tissue edema and pain, as well as increased mobility” and the IHS4 ([2]; one patient, severe HS, Day 14, 10 to 30 mg twice daily) was 61. The VAS pain ([2]; one patient, Day 14) was 7, the DLQI ([2]; one patient, Day 14) was 23 and the HiSQOL ([2]; one patient, Day 14) was 42. The VAS pain ([2]; one patient, Day 57) was 6, the DLQI ([2]; one patient, Day 57) was 22 and the HiSQOL ([2]; one patient, Day 57) was 46. The IHS4 ([2]; one patient, Day 57, 30 mg twice daily) was 62, the thrombocytes ([2]; one patient, at day 14, baseline 402) was 365 and the “patient's global assessment” value ([2]; one patient, day 15) was “very severe”. For the same compound, the “patient's global assessment” value ([2]; one patient, day 57) was “severe”, the leukocytes ([2]; one patient, day 57, baseline 14.0) was 11.5 and the C-reactive protein ([2]; one patient, day 57, baseline 89) was 84. For the same compound, the erythrocyte sedimentation rate ([2]; one patient, day 57, baseline 94) was 88 and the “physician's global assessment of disease activity” value ([2]; one patient, during treatment to day 57) was “very severe”.
